Experimental findings from patent US9133182B2, “Selective androgen receptor modulators” (Radius Health, Inc., priority 2010, dated 2015) are described below.

One may read the IC50 as the concentration needed to halve the response being measured.

The structures appear in SMILES notation. Some results are limits rather than exact numbers.

The subject of assay [1] is immature, castrated rat (levator ani and bulba cavernous, LABC). The assay is described as follows: In vivo rat Herschberger assay, LABC weight. Further details: key: no = no activity observed at highest dose tested.; yes = increased LABC weight relative to castrated vehicle control. The conditions noted are these: once daily oral gavage for 4 days. The text has this:
In Vivo Rat Model of Androgen and Anabolic Activity-Rat Herschberger Assay
The following is a typical procedure of the in vivo evaluation of the selective androgens of this invention. In particular, this assay looks primarily at the ability of the selective androgens of this invention to increase muscle size in an immature, castrated rat. In addition, androgenic effects are looked at primarily by weighing the prostate and seminal vesicles. Selective compounds will show a greater increase in the levator ani relative to the prostate and seminal vesicles when compared to testosterone treated, castrated animals or to intact animals that have not been treated. Immature Sprague Dawley male rats were obtained Charles River Laboratories (Stoneridge, N.Y.). All animals were maintained in a temperature and humidity controlled room with a 12 hr light: 12 hr dark cycle, with ad lib access to food (TD 291615, Teklad, Madison, Wis.) and water. Rats were anesthetized and orchidectomized (GDX) or sham surgery (SHAM) was performed. After a 7-day recovery period, the animals were randomized according to weight and assigned to treatment groups (n=5), SHAM, OVX+vehicle, OVX+Cpd treated. Testosterone propionate (TP 1 mg/kg in 5% DMSO/95% corn oil) was administered by once daily subcutaneous injections, while the compounds of the invention are dosed in vehicle (0.5% carboxymethylcellulose) was administered by once daily oral gavage. The rats were then dosed once daily for 4 days. All animals were euthanized via carbon dioxide inhalation 24 hs after the last dose. The prostate, seminal vesicle and levator ani and bulba cavernous (LABC) tissues were removed, weighed and recorded. An increase in mean LABC indicates anabolic activity for that particular compound with regard to oral dosing typically at a maximum tested dose of between 1 mg/kg and 30 mg/kg—see Table 1.

The target in another assay is androgen receptor (Rattus norvegicus (Rat), UniProt P15207). The assay is described as follows: androgen receptor binding assay (fluorescence polarization, Invitrogen). As to conditions: AR-Fluormone complex, 4 h at room temperature. As to the method:
The assay was performed as specified by the manufacturer (Invitrogen, Madison, Wis.). Briefly, 1 μl of 10 mM compound was added to 500 μl of AR screening buffer in a 1.5 ml eppendorf tube to make a 2×10^−5M stock. 10-fold serial dilutions of the test compounds were prepared ranging in concentration from 10^−5M to 10^−12M. Each dilution was added in triplicate to a black 384-microtiter plate. The test compounds will be diluted 2-fold in the final reaction. 2×AR-Fluormone™ complex was prepared with 2 nM Flourmone AL Green™ and 30 nM AR. 25 μl of 2×complex was aliquoted to each reaction well, such that the final reaction volume was 50 μl per well. Plate was sealed with a foil cover and incubated in the dark at room temperature for 4 h. Polarization values for each well were measured. The polarization values were plotted against the concentration of the test compound. […] As a control, a competition curve for R1881 (methyltrienolone) was performed for each assay.
For orientation: In fluorescence polarisation assays a small probe gives low polarisation when free and higher when bound to something large.

The mark [2] stands for this setting: maximum tested dose between 1 mg/kg and 30 mg/kg, Table 1.

Sequence of androgen receptor (P15207 651-902): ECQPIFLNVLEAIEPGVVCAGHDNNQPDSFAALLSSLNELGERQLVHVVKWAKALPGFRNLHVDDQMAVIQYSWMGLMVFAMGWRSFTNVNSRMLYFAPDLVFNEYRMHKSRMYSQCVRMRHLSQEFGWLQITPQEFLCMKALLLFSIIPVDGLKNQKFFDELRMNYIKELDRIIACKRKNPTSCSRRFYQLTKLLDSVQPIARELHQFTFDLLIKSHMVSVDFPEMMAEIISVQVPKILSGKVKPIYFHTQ

With `Cc1c(N2C(=O)OC[C@@H]2[C@H](O)C(F)(F)F)ccc(C#N)c1Cl` [Example 11, 2-chloro-3-methyl-4-((R)-2-oxo-4-((S)-2,2,2-trifluoro-1-hydroxyethyl)oxazolidin-3-yl)benzonitrile], in assay [1] (setting [2]), the “Oral activity in Herscheberger assay on LABC weight” value (shortened to “Oral activity”) was “yes”. Moreover, the half-inhibitory concentration (IC50) at androgen receptor (Table 1) came out at 0.025 µM.

Regarding `Cc1c(N2C(=O)OC[C@@H]2[C@H](O)C(F)(F)F)ccc(C#N)c1C(F)(F)F` [Example 13, 3-methyl-4-((R)-2-oxo-4-((S)-2,2,2-trifluoro-1-hydroxyethyl)oxazolidin-3-yl)-2-(trifluoromethyl)benzonitrile], the “Oral activity” value in assay [1] (setting [2]) is listed as “yes”. Also, the half-maximal inhibitory concentration (IC50) at androgen receptor (Table 1) amounted to 0.013 µM.

With `Cc1c(N2C(=O)O[C@@H](C)[C@@H]2[C@H](O)C(F)(F)F)ccc(C#N)c1Cl` [Example 17, 2-chloro-3-methyl-4-((4S,5S)-5-methyl-2-oxo-4-((S)-2,2,2-trifluoro-1-hydroxyethyl)oxazolidin-3-yl)benzonitrile], the “Oral activity” value in assay [1] (setting [2]) is reported as “yes”. This compound came in with a concentration for half-maximal inhibition (IC50) at androgen receptor (Table 1) of 0.013 µM.

Consider `C[C@@H]1OC(=O)N(c2ccc(C#N)c(Cl)c2)[C@H]1[C@H](O)C(F)(F)F` [Example 21, 2-Chloro-4-((4S,5S)-5-methyl-2-oxo-4-((S)-2,2,2-trifluoro-1-hydroxyethyl)oxazolidin-3-yl)benzonitrile], for which the “Oral activity” value in assay [1] (setting [2]) is listed as “yes”. Moreover, the half-inhibitory concentration (IC50) on androgen receptor (Table 1) turned out to be 0.015 µM.

Regarding `C[C@@H]1OC(=O)N(c2ccc(C#N)c(Cl)c2)[C@H]1[C@@H](O)C(F)(F)F` [Example 22, 2-Chloro-4-((4S,5S)-5-methyl-2-oxo-4-((R)-2,2,2-trifluoro-1-hydroxyethyl)oxazolidin-3-yl)benzonitrile], the “Oral activity” value in assay [1] (setting [2]) is reported as “yes”. Also, the IC50 on androgen receptor (Table 1) came to 0.21 µM.

On to `CN1C[C@H]([C@H](O)C(F)(F)F)N(c2ccc(C#N)c(C(F)(F)F)c2)C1=O` [Example 25, 4-((R)-5-((S)-2,2,2-trifluoro-1-hydroxyethyl)-3-methyl-2-oxoimidazolidin-1-yl)-2-(trifluoromethyl)benzonitrile], for which the “Oral activity” value in assay [1] (setting [2]) was “no”. Further, the IC50 at androgen receptor (Table 1) is 0.01 µM.

Turning to `CN1C[C@H]([C@@H](O)C(F)(F)F)N(c2ccc(C#N)c(C(F)(F)F)c2)C1=O` [Example 26, 4-((R)-5-((R)-2,2,2-trifluoro-1-hydroxyethyl)-3-methyl-2-oxoimidazolidin-1-yl)-2-(trifluoromethyl)benzonitrile], in assay [1] (setting [2]), the “Oral activity” value was “no”. On androgen receptor (Table 1), this compound registered a half-maximal inhibitory concentration (IC50) of more than 1 µM.

Turning to `O=C1CC[C@H]([C@H](O)C(F)(F)F)N1c1ccc(Cl)c(Cl)c1` [Example 27, (R)-1-(3,4-dichlorophenyl)-5-((S)-2,2,2-trifluoro-1-hydroxyethyl)pyrrolidin-2-one], in assay [1] (Table 2), the “Oral activity” value is listed as “yes”. Moreover, on androgen receptor (Table 2), the IC50 amounted to 0.062 µM.

For the compound `Cc1c(N2C(=O)CC[C@@H]2[C@H](O)C(F)(F)F)ccc(C#N)c1Cl` [Example 29, 2-chloro-4-((R)-2-((S)-2,2,2-trifluoro-1-hydroxyethyl)-5-oxopyrrolidin-1-yl)-3-methylbenzonitrile], the “Oral activity” value in assay [1] (Table 2) is “yes”. Further, the IC50 on androgen receptor (Table 2) was 0.025 µM.

In the case of `Cc1c(N2C(=O)CC[C@@H]2[C@@H](O)C(F)(F)F)ccc(C#N)c1Cl` [Example 30, 2-chloro-4-((R)-2-((R)-2,2,2-trifluoro-1-hydroxyethyl)-5-oxopyrrolidin-1-yl)-3-methylbenzonitrile], in assay [1] (Table 2), the “Oral activity” value is listed as “no”. This compound showed an IC50 at androgen receptor (Table 2) of 0.491 µM.

Consider `N#Cc1ccc(N2C(=O)CC[C@@H]2C(O)C(F)(F)F)cc1Cl` (stereo partly drawn) [Example 31, 2-chloro-4-((R)-2-(2,2,2-trifluoro-1-hydroxyethyl)-5-oxopyrrolidin-1-yl)benzonitrile], for which the “Oral activity” value in assay [1] (Table 2) is on record as “yes”. The half-inhibitory concentration (IC50) at androgen receptor (Table 2) came out at 0.046 µM.
